From patent publication US9605026B2, “Hydrogen-bond surrogate peptides and peptidomimetics for p53 reactivation” (New York University, priority 2013, dated 2017) come the findings set out here.

In assay [1] the test system is human normal IMR90 fibroblasts. The experiment in a line: Cell proliferation (MTT) in IMR90 fibroblasts. It counts as cell-based. The settings on record: for effect on efficacy of cis-platinum on proliferation: IMR90, 10 μM with cis-platinum 10 μM; for cell proliferation, single-agent: IMR90 human normal fibroblasts, 10 μM. The source says:
FIG. 5A is an schematic illustration showing that CH1 has two distinct target sites. HIF1-α/p300 structures were used as guides to design helix mimetics that target site A and site B on the CH1 domain of p300. […] CH1iA (SEQ ID NO: 7) and CH1iB (SEQ ID NO: 8) were designed to mimic two helices from the C-terminal domain of HIF-1α. The peptides were locked into the helical conformation by the hydrogen bond surrogate method. FIG. 5C is a graph of p53 activity. UMSCC47 (left) and UMSCC74A (right) cells were co-transfected with a p53 Firefly luciferase reporter plasmid and a control Renilla luciferase plasmid. After 24 hours, cells were treated with control (vehicle), CH1iA (10 μM), or CH1iB (10 μM) for 24 hours. Firefly luciferase activity was normalized to Renilla luciferase activity to control for transfection efficiency. Data is normalized to control and presented as mean±SEM. *P<0.05, n=3. FIG. 5D is a western blot showing total and acetylated p53 levels. UMSCC47 (left) and UMSCC74A (right) cells were treated with control (vehicle), CH1iA (10 μM), or CH1iB (10 μM) for 24 hours. Cell lysates were immunoblotted with anti-p53 or anti-acetylated[K382]-p53 antibody. FIG. 5E is a pair of graphs of p300, p53, p21, miR-34a, and miR-200c expression. UMSCC47 (top panel) and UMSCC74A (bottom panel) cells were treated with control (vehicle), CH1iA (10 μM), or CH1iB (10 μM) for 24 hours. mRNA expression was determined using qPCR with validated TaqMan assays. Data is normalized to control cells and presented as mean±SEM. *P<0.01, control vs. CH1iB, n=3. FIG. 5F is a western blot showing HPV16 E6-p300 association. UMSCC47 cells were treated with control (vehicle), CH1iA (10 μM), or CH1iB (10 μM) for 24 hours. Cell lysates were extracted, immunoprecipitated with anti-p300 antibody, and immunoblotted with anti-E6 antibody. Cell lysates were immunoblotted with anti-E6 or anti-p300 antibody for input control. FIG. 5G is a set of graphs of cell proliferation. UMSCC47 (top left panel), UMSCC74A (top right panel), and IMR90 (human normal fibroblasts) (bottom panel) cells were treated with control (vehicle), CH1iA (10 μM), CH1iB (10 μM), cis-platinum (10 μM), CH1iA (10 μM) and cis-platinum (10 μM), or CH1iB (10 μM) and cis-platinum (10 μM) for 24, 48, or 72 hours. […]
Cell proliferation was assessed using the MTT reagent (Roche Molecular Biochemicals, Nutley, N.J.) to detect metabolic active cells. Absorbance was measured at 570 nm in the Spectra Max 190 ELISA reader (Molecular Devices, Sunnyvale, Calif.) after overnight incubation. […] Apoptotic cells were analyzed using BD FACS Calibur (BD Biosciences Corporation, Franklin Lakes, N.J.) at The Ohio State University Comprehensive Cancer Center Analytical Cytometry Core.

For the next assay, the system named is UMSCC47 cells. The experiment in a line: Clonogenic survival of UMSCC47 cells. The assay is classed as cell-based, human. As to conditions: UMSCC47, 10 μM at day 0, colonies at 14 days, vs vehicle.

Turning to “XELA*RALDQ-NH2 (ELXRALDQ; HBS: 4-pentenoic acid, N-allylalanine; C-terminal amide; CH1iB) [X 4-pentenoic acid, A* N-allylalanine]”, in assay [1], the “effect on efficacy of cis-platinum on proliferation” value is reported as “did not augment” and the “cell proliferation, single-agent” value is on record as “no effect”. Further, the “reduction (inhibition) of clonogenic survival” value with UMSCC47 cells is 35%.

In the case of “XTAA*DCEYNAR (TAXDCEYNAR; HBS: 4-pentenoic acid, N-allylalanine; CH1iA) [X 4-pentenoic acid, A* N-allylalanine, reference compound]”, in assay [1], the “effect on efficacy of cis-platinum on proliferation” value is listed as “did not augment” and the “cell proliferation, single-agent” value is “no effect”.
